Like-named read-outs stand apart in the source and are kept apart here.
Legend:
Tadpole = Tadpole loss of righting reflex (LRR) and loss of swimming reflex (LSR); assay type: in vivo; conditions: ± SEM
Description: Table 3 discloses the anesthetic effects of the compounds of the present disclosure. In particular, the anesthetic effect of the compounds of the present disclosure on Loss of Righting Reflex (LRR) and Loss of Swimming Reflex (LSR).
Methods used are known in the art (see Jiang, X., et al.). Error limits are calculated as standard error of the mean (N=10 or more animals at each of five or more different concentrations).

[1] = target: picrotoxin binding site on GABAA receptors; assay: [35S]-TBPS displacement (inhibition of [35S]-TBPS binding); conditions: non-competitive displacement of [35S]-TBPS; ± SEM, duplicate experiments in triplicate
Description: The IC50 values for non-competitive displacers of [^35S]-TBPS from the picrotoxin binding site on GABAA receptors are reported in Table 1.
Results presented are from duplicate experiments performed in triplicate. Error limits are calculated as standard error of the mean. Methods used are known in the art (see Jiang, X., et al., Neurosteroid analogues. 9. Conformationally constrained pregnanes: structure-activity studies of 13,24-cyclo-18,21-dinorcholane analogues of the GABA modulatory and anesthetic steroids (3α,5α)- and […]. J. Med. Chem., 46: 5334-48 (2003)—the contents of which are hereby incorporated by reference in their entirety).

[2] = target: T1, rat α1β2γ2L type GABAA receptors expressed in Xenopus laevis oocytes (Rattus norvegicus, UniProt P18508+P62813+P63138, INS375LLRMFSFK); assay: Potentiation of GABA-mediated chloride currents and direct gating, oocyte electrophysiology; assay type: cell-based; conditions: ± SEM, N ≥ 4; for oocyte electrophysiology 0.1 μM: ratio of currents measured in the presence/absence of added compound: 0.1 μM compound; for oocyte electrophysiology 0.1 μM: ratio of currents measured in the presence/absence of added compound / oocyte electrophysiology 1 μM: ratio of currents measured in the presence/absence of added compound / oocyte electrophysiology 10 μM: ratio of currents measured in the presence/absence of added compound: 2 μM GABA control response; for oocyte electrophysiology 1 μM: ratio of currents measured in the presence/absence of added compound: 1 μM compound; for oocyte electrophysiology 10 μM: ratio of currents measured in the presence/absence of added compound: 10 μM compound; for (gating) 10 μM: ratio of compound only current/2 μM GABA current: direct current gated by 10 μM compound in the absence of GABA
T1 construct: expressed in transfected cells; host or cells: Xenopus laevis oocytes
T1 sequence (P62813 28-455, stated change not applied): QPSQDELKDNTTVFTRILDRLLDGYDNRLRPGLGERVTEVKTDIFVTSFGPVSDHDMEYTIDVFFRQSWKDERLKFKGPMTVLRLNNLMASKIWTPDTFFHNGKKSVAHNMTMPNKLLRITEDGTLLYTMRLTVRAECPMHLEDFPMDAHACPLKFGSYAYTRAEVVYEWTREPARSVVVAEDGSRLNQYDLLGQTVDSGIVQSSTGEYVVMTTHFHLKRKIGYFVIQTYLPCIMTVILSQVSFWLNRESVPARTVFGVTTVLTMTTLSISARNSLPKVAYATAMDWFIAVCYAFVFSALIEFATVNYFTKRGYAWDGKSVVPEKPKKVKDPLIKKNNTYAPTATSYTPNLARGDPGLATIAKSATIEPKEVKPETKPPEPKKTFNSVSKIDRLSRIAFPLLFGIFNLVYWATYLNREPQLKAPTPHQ
T1 sequence (P63138 26-474, stated change not applied): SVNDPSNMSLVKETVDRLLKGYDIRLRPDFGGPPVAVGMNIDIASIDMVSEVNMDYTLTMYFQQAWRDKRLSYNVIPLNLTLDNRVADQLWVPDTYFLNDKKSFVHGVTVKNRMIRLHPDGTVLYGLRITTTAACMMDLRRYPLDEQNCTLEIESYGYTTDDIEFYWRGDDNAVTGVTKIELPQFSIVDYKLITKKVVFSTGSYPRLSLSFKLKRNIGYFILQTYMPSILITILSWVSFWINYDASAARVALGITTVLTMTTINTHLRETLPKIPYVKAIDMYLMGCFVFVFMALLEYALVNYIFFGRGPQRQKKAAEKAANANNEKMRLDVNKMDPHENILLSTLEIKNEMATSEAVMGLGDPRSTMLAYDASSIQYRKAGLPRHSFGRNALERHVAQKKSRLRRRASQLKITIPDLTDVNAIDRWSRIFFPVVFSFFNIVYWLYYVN
T1 sequence (P18508 with tags, fused parts or gaps INS375LLRMFSFK): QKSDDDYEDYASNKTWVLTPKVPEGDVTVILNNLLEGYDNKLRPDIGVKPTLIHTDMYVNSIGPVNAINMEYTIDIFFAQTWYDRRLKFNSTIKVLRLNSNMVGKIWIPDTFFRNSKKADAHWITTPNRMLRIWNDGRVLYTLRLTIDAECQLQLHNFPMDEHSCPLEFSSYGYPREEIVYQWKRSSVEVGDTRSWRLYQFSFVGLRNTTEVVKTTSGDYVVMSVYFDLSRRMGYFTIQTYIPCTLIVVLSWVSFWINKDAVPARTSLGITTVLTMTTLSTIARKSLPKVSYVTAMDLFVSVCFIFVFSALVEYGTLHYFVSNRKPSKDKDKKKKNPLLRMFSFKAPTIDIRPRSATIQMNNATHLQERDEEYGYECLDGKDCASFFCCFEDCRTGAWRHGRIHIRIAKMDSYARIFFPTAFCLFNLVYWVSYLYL
Description: The compounds of the present disclosure were evaluated for the ability to potentiate chloride currents mediated by 2 μM GABA at rat α1β2γ2L type GABAA receptors expressed in Xenopus laevis oocytes and the results are shown in Table 2.

[3] = loss of righting reflex, read-out: Tadpole LRR EC50
[4] = loss of swimming reflex, read-out: Tadpole LSR EC50

| SMILES | EC50 (Tadpole; [3]) [nM] | EC50 (Tadpole; [4]) [nM] | IC50 [1] [nM] | oocyte electrophysiology 0.1 μM: ratio of currents measured in the presence/absence of added compound [2] | oocyte electrophysiology 1 μM: ratio of currents measured in the presence/absence of added compound [2] | oocyte electrophysiology 10 μM: ratio of currents measured in the presence/absence of added compound [2] | (gating) 10 μM: ratio of compound only current/2 μM GABA current [2] | melting point [°C] | Tadpole LSR EC50 (μM) (Tadpole; loss of swimming reflex) |
| --- | --- | --- | --- | --- | --- | --- | --- | --- | --- |
| CC(=O)[C@]12CC[C@H]3[C@@H](CC[C@H]4C[C@H](O)CC[C@@]43C)[C@@H]1CC[C@@H]2[C@@H](C)O [ZYC-72, (3α,5α,20R)-13-Acetyl-18-norpregnane-3,20-diol] | 3060 | > 10000 | 978 ± 618 | 0.80 ± 0.08 | 1.30 ± 0.11 | 2.78 ± 0.37 | −0.03 ± 0.11 | 159 to 161 |  |
| C=C[C@H]1CC[C@H]2[C@@H]3CC[C@H]4C[C@H](O)CC[C@]4(C)[C@H]3[C@@H](OC)C[C@]12C(C)=O [KK-144, 1-[(3α,5α,11β)-3-Hydroxy-11-methoxy-18-norpregn-20-en-13-yl]ethanone] | 180 ± 10 | 550 ± 10 | 72 ± 16 | 1.40 ± 0.11 | 5.38 ± 0.55 | 10.59 ± 1.31 | 0.18 ± 0.02 | 127 to 129 |  |
| CC(=O)[C@]12CC[C@H]3[C@@H](CC[C@H]4C[C@H](O)CC[C@@]43C)[C@@H]1CC[C@@H]2CO [ZYC-73, 1-[(3α,5α,17β)-3-Hydroxy-17-hydroxymethyl-18-norandrostan-13-yl]ethanone] | > 10000 |  | 1460 | 1.07 ± 0.15 | 1.42 ± 0.16 | 6.16 ± 0.71 |  | 166 to 168 | None |
| C=C[C@H]1CC[C@H]2[C@@H]3CC[C@H]4C[C@H](O)CC[C@]4(COC)[C@H]3CC[C@]12C(C)=O [KK-145, 1-[(3α,5α)-3-Hydroxy-19-methoxy-18-norpregn-20-en-13-yl]ethanone] | 140 ± 10 | 550 ± 10 | 53 ± 4 | 1.75 ± 0.14 | 13.74 ± 3.71 | 35.57 ± 12.85 | 0.56 ± 0.07 | 124 to 126 |  |
| CC[C@H]1CC[C@H]2[C@@H]3CC[C@H]4C[C@H](O)CC[C@]4(C)[C@H]3CC[C@]12C(C)=O [XJ-100, 1-[(3α,5α)-3-Hydroxy-18-norpregnan-13-yl]ethanone] | 460 ± 160 | > 10000 | 276 ± 130 | 1.33 ± 0.20 | 5.01 ± 0.89 | 8.41 ± 0.66 | −0.06 ± 0.06 | 182 to 184 |  |
| C=C[C@H]1CC[C@H]2[C@@H]3C[C@@H](OC)[C@H]4C[C@H](O)CC[C@]4(C)[C@H]3CC[C@]12C(C)=O [KK-143, 1-[(3α,5α,6β)-3-Hydroxy-6-methoxy-18-norpregn-20-en-13-yl]ethanone] | 610 ± 60 | 1730 ± 30 | 270 ± 19 | 1.23 ± 0.06 | 2.93 ± 0.30 | 8.43 ± 0.69 | 0.07 ± 0.02 | 158 to 160 |  |
| C=C[C@H]1CC[C@H]2[C@@H]3CC[C@H]4C[C@H](O)CC[C@]4(C)[C@H]3CC[C@]12C(C)=O [XJ-99, 1-[(3α,5α)-3-Hydroxy-18-norpregn-20-en-13-yl]ethanone] | 50 | 140 | 43 ± 12 | 1.73 ± 0.20 | 3.96 ± 0.99 | 4.37 ± 1.28 | 0.07 ± 0.02 | 178 to 179.5 |  |
| C=C[C@]12CC[C@H]3[C@@H](CC[C@H]4C[C@H](O)CC[C@@]43C)[C@@H]1CC[C@@H]2[C@@H](C)O [ZYC-76, (3α,5α,20R)-13-Ethenyl-18-norpregnan-3,20-diol] | 742000 ± 202000 | 1740 ± 30 | 497 ± 59 | 1.00 ± 0.01 | 1.56 ± 0.13 | 7.28 ± 1.76 | 0.04 ± 0.02 | 193 to 195 |  |
| C=C[C@]12CC[C@H]3[C@@H](CC[C@H]4C[C@H](O)CC[C@@]43C)[C@@H]1CC[C@@H]2C(C)=O [ZYC-75] | 670 ± 10 | 2640 ± 10 |  |  |  |  |  | 146 to 147 |  |
| C=C[C@H]1CC[C@H]2[C@@H]3CC[C@H]4C[C@H](O)[C@@H](OC)C[C@]4(C)[C@H]3CC[C@]12C(C)=O [KK-140, 1-[(2β,3α,5α)-3-Hydroxy-2-Methoxy-18-norpregn-20-en-13-yl]ethanone] | 50 | 300 | 17 ± 3 | 5.39 ± 2.76 | 11.90 ± 1.08 | 17.29 ± 2.10 | 0.27 ± 0.06 | 155 to 157 |  |
| CC(=O)[C@H]1CC[C@H]2[C@@H]3CC[C@H]4C[C@H](O)CC[C@]4(C)[C@H]3CC[C@]12C(C)=O [ZYC-71, (3α,5α)-13-Acetyl-3-hydroxy-18-norpregnan-20-one] | 1730 ± 10 | 5480 ± 150 | 82 ± 7 | 1.82 ± 0.03 | 9.31 ± 0.46 | 19.44 ± 1.69 | 0.22 ± 0.01 | 180 to 181 |  |
| CC(=O)[C@]12CC[C@H]3[C@@H](CC[C@H]4C[C@H](O)CC[C@@]43C)[C@@H]1CC[C@@H]2CCl [ZYC-74, 1-[(3α,5α,17β)-17-Chloromethy-3-hydroxy-18-norandrostan-13-yl]ethanone] | 3330 ± 1410 | 5480 ± 200 | 415 ± 83 | 1.06 ± 0.04 | 1.98 ± 0.21 | 9.38 ± 1.71 | 0.03 ± 0.01 | 161 to 162 |  |

Source: patent publication US10160783B2, “Neuroactive 13, 17-substituted steroids as modulators for GABA type-A receptors” (priority 2013, dated 2018)
